Source: patent US4067990A, “Process for the preparation of insecticidal compositions based on carbamic esters” (Airwick Industries, Inc., priority 1971, dated 1978)

Test system: common cockroaches
Assay: Test I: insecticidal efficacy of sprayed glass plates after 24 hours, one minute contact, common cockroaches
Type: in vivo, Blatta orientalis
Settings: compared with Dioxacarb
Experimental: After a standing time of 24 hours, tests to determine insecticidal efficacy were carried out on common cockroaches, these being placed on the treated face of the glass plate for one minute, and then transferred for observation to ventilated glass jars. […] The proportions recorded are shown below.

SMILES: CNC(=O)Oc1ccccc1OC(C)C [Arprocarb, 2-isopropoxyphenyl N-methyl-carbamate]
- insecticidal behaviour in words: behaves exactly as Dioxacarb
